Consider 25 compounds from patent US20200347043A1, “MODULATORS OF THE INTEGRATED STRESS PATHWAY” (Calico Life Sciences LLC, priority 2019, published 2020).

pEC50: −log10 of the molar value.

The assay deals with HEK293T cells carrying the ATF4 luciferase reporter. The assay can be described thus: ATF4-Luc assay (in vitro model of VWMD). The format is cell-based, human. As to conditions: Homo sapiens, HEK-293T, 1 μg/mL tunicamycin, 7 hours, One Glo luminescence. The method in brief: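 Tunicamycin (1 μg/mL) stress with co-added compound for 7 hours in HEK293T cells stably carrying an ATF4 5′-UTR–luciferase reporter. EC50 values come from the luminescent signal (One Glo).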
On to `O=C(NC12CC(c3cc(-c4ccc(Cl)c(F)c4)on3)(C1)C2)[C@H]1C[C@@H](O)c2cc(Cl)ccc2O1` [Compound 258, (2R,4R)-6-chloro-N-{3-[5-(4-chloro-3-fluorophenyl)-1,2-oxazol-3-yl]bicyclo[1.1.1]pentan-1-yl}-4-hydroxy-3,4-dihydro-2H-1-benzopyran-2-carboxamide], for which the pEC50 is greater than 8.00.
`O=C(NC12CC(c3cc(-c4ccc(Cl)c(F)c4)on3)(C1)C2)[C@@H]1C[C@@H](O)c2cc(Cl)ccc2O1` [Compound 259, (2S,4R)-6-chloro-N-{3-[5-(4-chloro-3-fluorophenyl)-1,2-oxazol-3-yl]bicyclo[11.11]pentan-1-yl}-4-hydroxy-3,4-dihydro-2H-1-benzopyran-2-carboxamide]: the pEC50 was 7.30 to 8.00.
On to `O=C(NC12CC(c3cc(-c4ccc(C(F)(F)F)nc4)on3)(C1)C2)[C@H]1C[C@@H](O)c2cc(Cl)ccc2O1` [Compound 260, (2R,4R)-6-chloro-4-hydroxy-N-(3-{5-[6-(trifluoromethyl)pyridin-3-yl]-1,2-oxazol-3-yl}bicyclo[1.1.1]pentan-1-yl)-3,4-dihydro-2H-1-benzopyran-2-carboxamide], for which the pEC50 was 7.30 to 8.00.
In the case of `O=C(NC12CC(c3cc(-c4ccc(C(F)(F)F)nc4)on3)(C1)C2)[C@@H]1C[C@@H](O)c2cc(Cl)ccc2O1` [Compound 261, (2S,4R)-6-chloro-4-hydroxy-N-(3-{5-[6-(trifluoromethyl)pyridin-3-yl]-1,2-oxazol-3-yl}bicyclo[1.1.1]pentan-1-yl)-3,4-dihydro-2H-1-benzopyran-2-carboxamide], the pEC50 was 6.60 to 7.30.
Under `O=C(NC12CC(c3cnn(-c4ccc(C(F)(F)F)nc4)c3)(C1)C2)[C@H]1C[C@@H](O)c2cc(Cl)ccc2O1` [Compound 262, (2R,4R)-6-chloro-4-hydroxy-N-(3-{1-[6-(trifluoromethyl)pyridin-3-yl]-1H-pyrazol-4-yl}bicyclo[1.1.1]pentan-1-yl)-3,4-dihydro-2H-1-benzopyran-2-carboxamide] stands greater than 8.00; under `O=C(NC12CC(c3cnn(-c4ccc(C(F)(F)F)nc4)c3)(C1)C2)[C@@H]1C[C@@H](O)c2cc(Cl)ccc2O1` [Compound 263, (2S,4R)-6-chloro-4-hydroxy-N-(3-{1-[6-(trifluoromethyl)pyridin-3-yl]-1H-pyrazol-4-yl}bicyclo[1.1.1]pentan-1-yl)-3,4-dihydro-2H-1-benzopyran-2-carboxamide], 7.30 to 8.00; under `O=C(NC12CC(c3cnn(-c4ccc(Cl)cc4)c3)(C1)C2)[C@H]1C[C@@H](O)c2cc(Cl)ccc2O1` [Compound 264, (2R,4R)-6-chloro-N-{3-[1-(4-chlorophenyl)-1H-pyrazol-4-yl]bicyclo[1.1.1]pentan-1-yl}-4-hydroxy-3,4-dihydro-2H-1-benzopyran-2-carboxamide], greater than 8.00.
For the compound `O=C(NC12CC(c3cnn(-c4ccc(Cl)cc4)c3)(C1)C2)[C@@H]1C[C@@H](O)c2cc(Cl)ccc2O1` [Compound 265, (2S,4R)-6-chloro-N-{3-[1-(4-chlorophenyl)-1H-pyrazol-4-yl]bicyclo[1.1.1]pentan-1-yl}-4-hydroxy-3,4-dihydro-2H-1-benzopyran-2-carboxamide], the pEC50 was 7.30 to 8.00.
Turning to `O=C(NC12CC(c3cc([C@H]4C[C@@H](OC(F)(F)F)C4)no3)(C1)C2)[C@H]1C[C@@H](O)c2cc(Cl)ccc2O1` [Compound 266, (2R,4R)-6-chloro-4-hydroxy-N-(3-{3-[cis-3-(trifluoromethoxy)cyclobutyl]-1,2-oxazol-5-yl}bicyclo[1.1.1]pentan-1-yl)-3,4-dihydro-2H-1-benzopyran-2-carboxamide], the pEC50 is 7.30 to 8.00.
Take `O=C(NC12CC(N3CC([C@H]4C[C@@H](OC(F)(F)F)C4)OC3=O)(C1)C2)[C@H]1C[C@@H](O)c2cc(Cl)ccc2O1` (stereo partly drawn) [Compound 267, (2R,4R)-6-chloro-4-hydroxy-N-(3-{2-oxo-5-[cis-3-(trifluoromethoxy)cyclobutyl]-1,3-oxazolidin-3-yl}bicyclo[1.1.1]pentan-1-yl)-3,4-dihydro-2H-1-benzopyran-2-carboxamide]: the pEC50 is 6.60 to 7.30.
Take `O=C(NC12CC(c3cc([C@H]4C[C@@H](OC(F)(F)F)C4)no3)(C1)C2)[C@@H]1C[C@@H](O)c2cc(Cl)ccc2O1` [Compound 268, (2S,4R)-6-chloro-4-hydroxy-N-(3-{3-[cis-3-(trifluoromethoxy)cyclobutyl]-1,2-oxazol-5-yl}bicyclo[1.1.1]pentan-1-yl)-3,4-dihydro-2H-1-benzopyran-2-carboxamide]: the pEC50 was 6.60 to 7.30.
As to `O=C(NC12CC(N3CC([C@H]4C[C@@H](OC(F)(F)F)C4)OC3=O)(C1)C2)[C@@H]1C[C@@H](O)c2cc(Cl)ccc2O1` (stereo partly drawn) [Compound 269, (2S,4R)-6-chloro-4-hydroxy-N-(3-{2-oxo-5-[cis-3-(trifluoromethoxy)cyclobutyl]-1,3-oxazolidin-3-yl}bicyclo[1.1.1]pentan-1-yl)-3,4-dihydro-2H-1-benzopyran-2-carboxamide], the pEC50 is 6.30 to 6.60.
For `O=C(NC12CC(c3ncc(-c4ccc(Cl)c(F)c4)o3)(C1)C2)[C@H]1C[C@@H](O)c2cc(Cl)ccc2O1` [Compound 270, (2R,4R)-6-chloro-N-{3-[5-(4-chloro-3-fluorophenyl)-1,3-oxazol-2-yl]bicyclo[1.1.1]pentan-1-yl}-4-hydroxy-3,4-dihydro-2H-1-benzopyran-2-carboxamide], the pEC50 was greater than 8.00.
With `O=C(NC12CC(c3ncc(-c4ccc(Cl)c(F)c4)o3)(C1)C2)[C@@H]1C[C@@H](O)c2cc(Cl)ccc2O1` [Compound 271, (2S,4R)-6-chloro-N-{3-[5-(4-chloro-3-fluorophenyl)-1,3-oxazol-2-yl]bicyclo[1.1.1]pentan-1-yl}-4-hydroxy-3,4-dihydro-2H-1-benzopyran-2-carboxamide], the pEC50 is 7.30 to 8.00.
With `O=C(NC12CC(c3csc(-c4ccc(Cl)cc4)n3)(C1)C2)[C@H]1C[C@@H](O)c2cc(Cl)ccc2O1` [Compound 272, (2R,4R)-6-chloro-N-{3-[2-(4-chlorophenyl)-1,3-thiazol-4-yl]bicyclo[1.1.1]pentan-1-yl}-4-hydroxy-3,4-dihydro-2H-1-benzopyran-2-carboxamide] the figure was 7.30 to 8.00; with `O=C(NC12CC(c3csc(-c4ccc(Cl)cc4)n3)(C1)C2)[C@@H]1C[C@@H](O)c2cc(Cl)ccc2O1` [Compound 273, (2S,4R)-6-chloro-N-{3-[2-(4-chlorophenyl)-1,3-thiazol-4-yl]bicyclo[11.11]pentan-1-yl}-4-hydroxy-3,4-dihydro-2H-1-benzopyran-2-carboxamide], 6.60 to 7.30.
Regarding `Cc1nc(C23CC(NC(=O)[C@H]4C[C@@H](O)c5cc(Cl)ccc5O4)(C2)C3)oc1-c1ccc(Cl)cc1` [Compound 274, (2R,4R)-6-chloro-N-{3-[5-(4-chlorophenyl)-4-methyl-1,3-oxazol-2-yl]bicyclo[1.1.1]pentan-1-yl}-4-hydroxy-3,4-dihydro-2H-1-benzopyran-2-carboxamide], the negative-log EC50 (pEC50) is 7.30 to 8.00.
On to `Cc1nc(C23CC(NC(=O)[C@@H]4C[C@@H](O)c5cc(Cl)ccc5O4)(C2)C3)oc1-c1ccc(Cl)cc1` [Compound 275, (2S,4R)-6-chloro-N-{3-[5-(4-chlorophenyl)-4-methyl-1,3-oxazol-2-yl]bicyclo[1.1.1]pentan-1-yl}-4-hydroxy-3,4-dihydro-2H-1-benzopyran-2-carboxamide], for which the pEC50 was 6.60 to 7.30.
Consider `O=C(CO[C@H]1C[C@@H](OC(F)(F)F)C1)NC12CCC(NC(=O)[C@@H]3C[C@H](O)c4cc(Cl)ccc4O3)(CC1)C[C@@H]2O` [Compound 276, (2S,4S)-6-chloro-4-hydroxy-N-[(3S)-3-hydroxy-4-(2-{[cis-3-(trifluoromethoxy)cyclobutyl]oxy}acetamido)bicyclo[2.2.2]octan-1-yl]-3,4-dihydro-2H-1-benzopyran-2-carboxamide], for which the pEC50 was greater than 8.00.
For the compound `O=C(NC12CC(N3CC(c4ccc(Cl)cc4)OC3=O)(C1)C2)[C@H]1C[C@@H](O)c2cc(Cl)ccc2O1` (stereo partly drawn) [Compound 277, (2R,4R)-6-chloro-N-{3-[5-(4-chlorophenyl)-2-oxo-1,3-oxazolidin-3-yl]bicyclo[1.1.1]pentan-1-yl}-4-hydroxy-3,4-dihydro-2H-1-benzopyran-2-carboxamide], the pEC50 was 6.60 to 7.30.
With `O=C(NC12CC(N3CC(c4ccc(Cl)cc4)OC3=O)(C1)C2)[C@@H]1C[C@@H](O)c2cc(Cl)ccc2O1` (stereo partly drawn) [Compound 278, (2S,4R)-6-chloro-N-{3-[5-(4-chlorophenyl)-2-oxo-1,3-oxazolidin-3-yl]bicyclo[1.1.1]pentan-1-yl}-4-hydroxy-3,4-dihydro-2H-1-benzopyran-2-carboxamide] the figure was 5.70 to 6.30; with `O=C(NC12CC(c3csc([C@H]4C[C@@H](OC(F)(F)F)C4)n3)(C1)C2)[C@H]1C[C@@H](O)c2cc(Cl)ccc2O1` [Compound 280, (2R,4R)-6-chloro-4-hydroxy-N-(3-{2-[cis-3-(trifluoromethoxy)cyclobutyl]-1,3-thiazol-4-yl}bicyclo[1.1.1]pentan-1-yl)-3,4-dihydro-2H-1-benzopyran-2-carboxamide], 6.60 to 7.30.
Take `O=C(NC12CC(n3cnc(-c4ccc(Cl)cc4)c3)(C1)C2)[C@H]1C[C@@H](O)c2cc(Cl)ccc2O1` [Compound 281, (2R,4R)-6-chloro-N-{3-[4-(4-chlorophenyl)-1H-imidazol-1-yl]bicyclo[1.1.1]pentan-1-yl}-4-hydroxy-3,4-dihydro-2H-1-benzopyran-2-carboxamide]: the pEC50 was greater than 8.00.
Under `O=C(NC12CC(n3cnc(-c4ccc(Cl)c(F)c4)c3)(C1)C2)[C@H]1C[C@@H](O)c2cc(Cl)ccc2O1` [Compound 282, (2R,4R)-6-chloro-N-{3-[4-(4-chloro-3-fluorophenyl)-1H-imidazol-1-yl]bicyclo[1.1.1]pentan-1-yl}-4-hydroxy-3,4-dihydro-2H-1-benzopyran-2-carboxamide] stands greater than 8.00; under `O=C(NC12CC(c3cc([C@H]4C[C@@H](OC(F)(F)F)C4)on3)(C1)C2)[C@@H]1C[C@@H](O)c2cc(Cl)ccc2O1` [Compound 283, (2S,4R)-6-chloro-4-hydroxy-N-(3-{5-[cis-3-(trifluoromethoxy)cyclobutyl]-1,2-oxazol-3-yl}bicyclo[1.1.1]pentan-1-yl)-3,4-dihydro-2H-1-benzopyran-2-carboxamide], 6.60 to 7.30.
